Laboratory results from PubChem BioAssay (NCI).
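Exposure lasted 48 hours, with cells grown in 96-well plates and compounds tested at five concentrations. GI50 marks 50% less growth. TGI marks complete inhibition of growth.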

What was measured:
Assay in all cases: NCI anticancer screen, dose series, 48 h
[1] = tested on: PC-3 prostate
[2] = tested on: 786-0 renal
[3] = tested on: K-562 leukemia
[4] = tested on: SR leukemia
[5] = tested on: OVCAR-8 ovarian
[6] = tested on: BT-549 breast
[7] = tested on: HL-60(TB) leukemia
[8] = tested on: DU-145 prostate
[9] = tested on: LOX IMVI melanoma
[10] = tested on: CCRF-CEM leukemia
[11] = tested on: MCF7 breast
[12] = tested on: HT29 colon
[13] = tested on: KM12 colon
[14] = tested on: MDA-MB-435
[15] = tested on: NCI-H522 lung
[16] = tested on: SNB-19 CNS
[17] = tested on: MALME-3M melanoma
[18] = tested on: UACC-257 melanoma
[19] = tested on: MDA-MB-468 breast
[20] = tested on: MDA-MB-231 breast
[21] = tested on: COLO 205 colon
[22] = tested on: SF-295 CNS
[23] = tested on: T-47D breast
[24] = tested on: SW-620 colon
[25] = tested on: CAKI-1 renal
[26] = tested on: SNB-75 CNS
[27] = tested on: SF-268 CNS
[28] = tested on: RPMI-8226 leukemia
[29] = tested on: HOP-62 NSCLC
[30] = tested on: SK-MEL-28 melanoma
[31] = tested on: EKVX NSCLC
[32] = tested on: TK-10 renal
[33] = tested on: HCC-2998 colon
[34] = tested on: HOP-92 NSCLC
[35] = tested on: SK-OV-3 ovarian
[36] = tested on: A498 renal
[37] = tested on: U251 CNS
[38] = tested on: NCI-H226 lung
[39] = tested on: MOLT-4 leukemia
[40] = tested on: OVCAR-4 ovarian
[41] = tested on: OVCAR-3 ovarian
[42] = tested on: M14 melanoma
[43] = tested on: HS 578T breast
[44] = tested on: SF-539 CNS
[45] = tested on: UO-31 renal
[46] = tested on: SK-MEL-5 melanoma
[47] = tested on: SK-MEL-2 melanoma
[48] = tested on: ACHN renal
[49] = tested on: NCI/ADR-RES ovarian
[50] = tested on: UACC-62 melanoma
[51] = tested on: NCI-H460 lung
[52] = tested on: SN12C renal
[53] = tested on: IGROV1 ovarian
[54] = tested on: HCT-15 colon
[55] = tested on: A549 NSCLC
[56] = tested on: NCI-H23 lung
[57] = tested on: OVCAR-5 ovarian
[58] = tested on: HCT-116 colon
[59] = tested on: RXF 393 renal

Q: With `CC(=O)N1CCN(Cc2ccc3c(NNC(=O)c4cnccn4)nc4cc(F)ccc4n23)CC1` as the compound, how does the GI50 [1] read?
A: 0.525 µM

Q: What about the TGI [1] of the same compound?
A: > 52.4 µM

Q: And the GI50 [2]?
A: 0.342 µM

Q: What about the TGI [2] of the same compound?
A: 6.55 µM

Q: And the GI50 [3]?
A: 0.753 µM

Q: And the TGI [3]?
A: 33.5 µM

Q: And the GI50 [4]?
A: 0.389 µM

Q: And the TGI [4]?
A: 10.7 µM

Q: And the GI50 [5]?
A: 0.454 µM

Q: And the TGI [5]?
A: > 34.1 µM

Q: And the GI50 [6]?
A: 0.995 µM

Q: What about the TGI [6] of the same compound?
A: 19.6 µM

Q: And the GI50 [7]?
A: 0.461 µM

Q: What about the TGI [7] of the same compound?
A: 4.54 µM

Q: What about the GI50 [8] of the same compound?
A: 0.873 µM

Q: What about the TGI [8] of the same compound?
A: > 100 µM

Q: What about the GI50 [9] of the same compound?
A: 0.371 µM

Q: What about the TGI [9] of the same compound?
A: 3.09 µM

Q: And the GI50 [10]?
A: 0.374 µM

Q: What about the TGI [10] of the same compound?
A: 10.6 µM

Q: And the GI50 [11]?
A: 0.898 µM

Q: And the TGI [11]?
A: 31.2 µM

Q: And the GI50 [12]?
A: 0.501 µM

Q: And the TGI [12]?
A: 21 µM

Q: What about the GI50 [13] of the same compound?
A: 0.537 µM

Q: What about the TGI [13] of the same compound?
A: > 81.3 µM

Q: What about the GI50 [14] of the same compound?
A: 1.51 µM

Q: And the TGI [14]?
A: > 100 µM

Q: What about the GI50 [15] of the same compound?
A: 1.26 µM

Q: And the TGI [15]?
A: 15.7 µM

Q: What about the GI50 [16] of the same compound?
A: 1.2 µM

Q: And the TGI [16]?
A: > 100 µM

Q: What about the GI50 [17] of the same compound?
A: 1.22 µM

Q: And the TGI [17]?
A: 10.9 µM

Q: And the GI50 [18]?
A: 1.68 µM

Q: What about the TGI [18] of the same compound?
A: 10.5 µM

Q: And the GI50 [19]?
A: 0.525 µM

Q: And the TGI [19]?
A: 3.39 µM

Q: What about the GI50 [20] of the same compound?
A: 0.736 µM

Q: What about the TGI [20] of the same compound?
A: 25.2 µM

Q: And the GI50 [21]?
A: 0.436 µM

Q: What about the TGI [21] of the same compound?
A: 11.4 µM

Q: What about the GI50 [22] of the same compound?
A: 0.29 µM

Q: And the TGI [22]?
A: 29.9 µM

Q: What about the GI50 [23] of the same compound?
A: 1.7 µM

Q: And the TGI [23]?
A: 36.8 µM

Q: What about the GI50 [24] of the same compound?
A: 0.633 µM

Q: What about the TGI [24] of the same compound?
A: > 63 µM

Q: What about the GI50 [25] of the same compound?
A: 0.477 µM

Q: And the TGI [25]?
A: 18.8 µM

Q: What about the GI50 [26] of the same compound?
A: 1.39 µM

Q: What about the TGI [26] of the same compound?
A: 99.3 µM

Q: What about the GI50 [27] of the same compound?
A: 0.609 µM

Q: What about the TGI [27] of the same compound?
A: > 100 µM

Q: And the GI50 [28]?
A: 0.823 µM

Q: What about the TGI [28] of the same compound?
A: > 39.7 µM

Q: And the GI50 [29]?
A: 0.41 µM

Q: What about the TGI [29] of the same compound?
A: 23.6 µM

Q: And the GI50 [30]?
A: 0.624 µM

Q: And the TGI [30]?
A: 31.6 µM

Q: And the GI50 [31]?
A: 0.312 µM

Q: What about the TGI [31] of the same compound?
A: 10.3 µM

Q: And the GI50 [32]?
A: 0.304 µM

Q: What about the TGI [32] of the same compound?
A: 45.7 µM

Q: And the GI50 [33]?
A: 0.96 µM

Q: What about the TGI [33] of the same compound?
A: 19 µM

Q: What about the GI50 [34] of the same compound?
A: 0.331 µM

Q: What about the TGI [34] of the same compound?
A: 14.6 µM

Q: What about the GI50 [35] of the same compound?
A: 0.492 µM

Q: And the TGI [35]?
A: 13.7 µM

Q: What about the GI50 [36] of the same compound?
A: 22.7 µM

Q: What about the TGI [36] of the same compound?
A: 37.8 µM

Q: What about the GI50 [37] of the same compound?
A: 0.505 µM

Q: And the TGI [37]?
A: 48.7 µM

Q: What about the GI50 [38] of the same compound?
A: 0.742 µM

Q: And the TGI [38]?
A: 11.2 µM

Q: What about the GI50 [39] of the same compound?
A: 0.387 µM

Q: What about the TGI [39] of the same compound?
A: 15.5 µM

Q: What about the GI50 [40] of the same compound?
A: 0.64 µM

Q: What about the TGI [40] of the same compound?
A: 41.7 µM

Q: What about the GI50 [41] of the same compound?
A: 0.724 µM

Q: And the TGI [41]?
A: 30.5 µM

Q: And the GI50 [42]?
A: 0.333 µM

Q: What about the TGI [42] of the same compound?
A: 2.24 µM

Q: And the GI50 [43]?
A: 13.2 µM

Q: What about the TGI [43] of the same compound?
A: > 100 µM

Q: What about the GI50 [44] of the same compound?
A: 0.787 µM

Q: What about the TGI [44] of the same compound?
A: 6.04 µM

Q: And the GI50 [45]?
A: 0.163 µM

Q: What about the TGI [45] of the same compound?
A: 7.66 µM

Q: And the GI50 [46]?
A: 0.605 µM

Q: And the TGI [46]?
A: 4.98 µM

Q: And the GI50 [47]?
A: 1.28 µM

Q: And the TGI [47]?
A: 11.4 µM

Q: And the GI50 [48]?
A: 0.311 µM

Q: What about the TGI [48] of the same compound?
A: 12.3 µM

Q: What about the GI50 [49] of the same compound?
A: 1.17 µM

Q: And the TGI [49]?
A: 12.3 µM

Q: What about the GI50 [50] of the same compound?
A: 0.435 µM

Q: And the TGI [50]?
A: 2.21 µM

Q: And the GI50 [51]?
A: 0.408 µM

Q: What about the TGI [51] of the same compound?
A: > 36 µM

Q: What about the GI50 [52] of the same compound?
A: 0.864 µM

Q: What about the TGI [52] of the same compound?
A: > 100 µM

Q: And the GI50 [53]?
A: 0.784 µM

Q: What about the TGI [53] of the same compound?
A: > 52.9 µM

Q: And the GI50 [54]?
A: 0.197 µM

Q: And the TGI [54]?
A: 19 µM

Q: And the GI50 [55]?
A: 0.596 µM

Q: And the TGI [55]?
A: 17.5 µM

Q: And the GI50 [56]?
A: 0.909 µM

Q: And the TGI [56]?
A: 13.2 µM

Q: And the GI50 [57]?
A: 1.09 µM

Q: And the TGI [57]?
A: 24.4 µM

Q: And the GI50 [58]?
A: 0.309 µM

Q: What about the TGI [58] of the same compound?
A: 18.8 µM

Q: And the GI50 [59]?
A: 1.45 µM

Q: What about the TGI [59] of the same compound?
A: 12.4 µM
